Tests used:
ISC-enriched organoids [1] = assay: Primary screen, 384-well 2.5-D organoid differentiation (ENR+CD, 6 days): carbachol-induced lysozyme secretion (LYZ.S); format: cell-based, murine; settings: primary screen, ENR+CD 6 days, FC vs plate median
From the text: (§1) High-throughput screening.

ISC-enriched organoids [2] = assay: Primary screen, 384-well 2.5-D organoid differentiation (ENR+CD, 6 days): basal lysozyme secretion (LYZ.NS); format: cell-based, murine; settings: primary screen; for Dose.FC.LYZ.NS: ENR+CD 6 days, FC vs plate median; for Z.LYZ.NS: standard z score of FC
From the text: as §1

ISC-enriched organoids [3] = assay: Primary screen, 384-well 2.5-D organoid differentiation (ENR+CD, 6 days, Target Selective Inhibitor Library, vs whole-plate median): ATP (CellTiter-Glo 3D, CTG); settings: primary screen; for Dose.FC.CTG: ENR+CD 6 days, FC vs plate median; for Z.CTG: standard z score of FC

Row | SMILES | Dose.FC.LYZ.S (ISC-enriched organoids [1]; dose 0.08 uM) [log 2 fold change] | Dose.FC.LYZ.S (ISC-enriched organoids [1]; dose 0.40 uM) [log 2 fold change] | Dose.FC.LYZ.S (ISC-enriched organoids [1]; dose 2.00 uM) [log 2 fold change] | Dose.FC.LYZ.S (ISC-enriched organoids [1]; dose 10.00 uM) [log 2 fold change] | Dose.FC.LYZ.NS (ISC-enriched organoids [2]; dose 0.08 uM) [log 2 fold change] | Z.LYZ.NS (ISC-enriched organoids [2]; dose 0.08 uM) | Dose.FC.LYZ.NS (ISC-enriched organoids [2]; dose 0.40 uM) [log 2 fold change] | Z.LYZ.NS (ISC-enriched organoids [2]; dose 0.40 uM) | Dose.FC.LYZ.NS (ISC-enriched organoids [2]; dose 2.00 uM) [log 2 fold change] | Z.LYZ.NS (ISC-enriched organoids [2]; dose 2.00 uM) | Dose.FC.LYZ.NS (ISC-enriched organoids [2]; dose 10.00 uM) [log 2 fold change] | Z.LYZ.NS (ISC-enriched organoids [2]; dose 10.00 uM) | Dose.FC.CTG (ISC-enriched organoids [3]; dose 0.08 uM) [log 2 fold change] | Z.CTG (ISC-enriched organoids [3]; dose 0.08 uM) | Dose.FC.CTG (ISC-enriched organoids [3]; dose 0.40 uM) [log 2 fold change] | Z.CTG (ISC-enriched organoids [3]; dose 0.40 uM) | Dose.FC.CTG (ISC-enriched organoids [3]; dose 2.00 uM) [log 2 fold change] | Z.CTG (ISC-enriched organoids [3]; dose 2.00 uM) | Dose.FC.CTG (ISC-enriched organoids [3]; dose 10.00 uM) [log 2 fold change] | Z.CTG (ISC-enriched organoids [3]; dose 10.00 uM)
1 | O=C(O)c1cccc(-c2noc(-c3ccccc3F)n2)c1 [Ataluren (PTC124)] | 0.051 | 0.034 | 0.058 | 0.005 | 0.029 | 0.253 | 0.042 | 0.362 | 0.131 | 1.140 | 0.009 | 0.077 | 0.267 | 0.639 | −0.340 | −0.813 | −0.042 | −0.100 | 0.006 | 0.013
2 | CN(C)C(=O)Nc1cccc(-c2ccc(N(C)C)cc2)c1 [Atglistatin] | 0.028 | −0.035 | 0.026 | 0.012 | 0.069 | 0.604 | 0.135 | 1.176 | 0.070 | 0.613 | −0.016 | −0.142 | 0.057 | 0.137 | 0.004 | 0.009 | −0.045 | −0.108 | −0.431 | −1.031
3 | CC(C)c1c(C(=O)Nc2ccccc2)c(-c2ccccc2)c(-c2ccc(F)cc2)n1CC[C@@H](O)C[C@@H](O)CC(=O)[O-].CC(C)c1c(C(=O)Nc2ccccc2)c(-c2ccccc2)c(-c2ccc(F)cc2)n1CC[C@@H](O)C[C@@H](O)CC(=O)[O-].[Ca+2] [Atorvastatin Calcium] | 0.022 | −0.062 | −0.354 | −0.305 | −0.009 | −0.077 | 0.007 | 0.062 | −0.247 | −2.148 | −0.235 | −2.045 | −0.129 | −0.309 | −0.348 | −0.831 | −1.085 | −2.591 | −1.583 | −3.780
4 | CCN1CCN(c2ccc(Nc3cc(N(C)C(=O)Nc4c(Cl)c(OC)cc(OC)c4Cl)ncn3)cc2)CC1 [BGJ398 (NVP-BGJ398)] | −0.036 | 0.002 | −0.062 | −0.350 | −0.002 | −0.017 | −0.060 | −0.520 | −0.052 | −0.450 | −0.269 | −2.345 | −0.054 | −0.128 | 0.026 | 0.063 | −0.185 | −0.442 | −1.500 | −3.583
5 | CC(C)CCN1c2nc(Nc3cc(F)c(O)c(F)c3)ncc2N(C)C(=O)C1C (stereo not shown) [BI-D1870] | 0.162 | 0.158 | 0.008 | −0.378 | 0.141 | 1.225 | 0.126 | 1.099 | −0.066 | −0.574 | −0.285 | −2.483 | 0.186 | 0.444 | 0.029 | 0.069 | −0.012 | −0.028 | −0.700 | −1.673
6 | C/C(=C\C(=O)Nc1ccccc1C(=O)O)c1ccc2ccccc2c1 [BIBR 1532] | 0.028 | 0.107 | −0.081 | −0.114 | 0.032 | 0.282 | 0.043 | 0.377 | −0.013 | −0.117 | −0.062 | −0.536 | 0.223 | 0.533 | −0.047 | −0.113 | −0.034 | −0.080 | 0.030 | 0.072
7 | COc1ccc2c(c1)c(CC(=O)N1CCOCC1)c(C)n2C(=O)c1ccc(Cl)cc1 [BML-190] | 0.060 | −0.037 | 0.017 | 0.067 | 0.072 | 0.623 | −0.017 | −0.152 | 0.116 | 1.011 | 0.209 | 1.823 | −0.003 | −0.007 | −0.099 | −0.237 | −0.106 | −0.254 | −0.106 | −0.254
8 | COc1ccnc2[nH]cc(C(=O)C(=O)N3CCN(C(=O)c4ccccc4)C[C@H]3C)c12 [BMS-378806] | 0.159 | 0.007 | −0.142 | −0.322 | 0.141 | 1.231 | −0.007 | −0.061 | −0.100 | −0.870 | −0.227 | −1.977 | 0.233 | 0.557 | 0.102 | 0.243 | −0.289 | −0.691 | −1.155 | −2.758

From patent publication US20230398130A1, “METHODS AND COMPOSITIONS FOR DIFFERENTIATING STEM CELLS” (Massachusetts Institute of Technology, priority 2020, published 2023)
